# Assay results published in ChEMBL document CHEMBL1201862, “PubChem BioAssay data set” (2004).
#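 Grown in 96-well plates, cells were treated for 48 hours with each compound at five concentrations. Insufficient inhibition: endpoint recorded as highest concentration tested. Abbreviation: GI50, concentration required for 50% inhibition of growth.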 Activity calls are given as the source filed them. Cut-off read from the data, not from the text of the source: active = GI50 up to about 1.1 µM and inactive = higher.
# Key:
# Assay in all cases: growth of human tumour cells (NCI), 48 h
# 786-0 = system: 786-0
# A498 = system: A498
# A549 = system: A549
# ACHN = system: ACHN
# BT-549 = system: BT-549
# CAKI-1 = system: CAKI-1
# CCRF-CEM = system: CCRF-CEM
# DU-145 = system: DU-145
# EKVX = system: EKVX
# HCC 2998 = system: HCC 2998
# HCT-116 = system: HCT-116
# HCT-15 = system: HCT-15
# HL-60 = system: HL-60
# HOP-62 = system: HOP-62
# HOP-92 = system: HOP-92
# HT-29 = system: HT-29
# Hs-578T = system: Hs-578T
# IGROV-1 = system: IGROV-1
# K562 = system: K562
# KM12 = system: KM12
# LOX IMVI = system: LOX IMVI
# M14 = system: M14
# MCF7 = system: MCF7
# MDA-MB-231 = system: MDA-MB-231
# MDA-MB-435 = system: MDA-MB-435
# MDA-N = system: MDA-N
# MOLT-4 = system: MOLT-4
# Malme-3M = system: Malme-3M
# NCI-H226 = system: NCI-H226
# NCI-H23 = system: NCI-H23
# NCI-H460 = system: NCI-H460
# NCI-H522 = system: NCI-H522
# NCI/ADR-RES = system: NCI/ADR-RES
# OVCAR-3 = system: OVCAR-3
# OVCAR-4 = system: OVCAR-4
# OVCAR-5 = system: OVCAR-5
# OVCAR-8 = system: OVCAR-8
# PC-3 = system: PC-3
# RPMI-8226 = system: RPMI-8226
# RXF 393 = system: RXF 393
# SF-268 = system: SF-268
# SF-295 = system: SF-295
# SF-539 = system: SF-539
# SK-MEL-28 = system: SK-MEL-28
# SK-MEL-2 = system: SK-MEL-2
# SK-MEL-5 = system: SK-MEL-5
# SK-OV-3 = system: SK-OV-3
# SN12C = system: SN12C
# SNB-19 = system: SNB-19
# SNB-75 = system: SNB-75
# SW-620 = system: SW-620
# T47D = system: T47D
# TK-10 = system: TK-10
# U-251 = system: U-251
# UACC-257 = system: UACC-257
# UACC-62 = system: UACC-62
# UO-31 = system: UO-31
# COLO 205 = system: COLO 205
smiles,measurement,setting,value
Nc1ncnc2c1ccn2CC=C(CO)CO,GI50,786-0,> 100 µM (inactive)
same,GI50,A498,> 100 µM (inactive)
same,GI50,A549,> 100 µM (inactive)
same,GI50,ACHN,> 100 µM (inactive)
same,GI50,BT-549,> 100 µM (inactive)
same,GI50,CAKI-1,> 100 µM (inactive)
same,GI50,CCRF-CEM,> 100 µM (inactive)
same,GI50,DU-145,> 100 µM (inactive)
same,GI50,EKVX,> 100 µM (inactive)
same,GI50,HCC 2998,> 100 µM (inactive)
same,GI50,HCT-116,> 100 µM (inactive)
same,GI50,HCT-15,> 100 µM
same,GI50,HL-60,> 100 µM (inactive)
same,GI50,HOP-62,> 100 µM (inactive)
same,GI50,HOP-92,> 100 µM (inactive)
same,GI50,HT-29,> 100 µM (inactive)
same,GI50,Hs-578T,> 100 µM (inactive)
same,GI50,IGROV-1,> 100 µM (inactive)
same,GI50,K562,> 100 µM (inactive)
same,GI50,KM12,> 100 µM (inactive)
same,GI50,LOX IMVI,> 100 µM (inactive)
same,GI50,M14,> 100 µM (inactive)
same,GI50,MCF7,> 100 µM (inactive)
same,GI50,MDA-MB-231,> 100 µM (inactive)
same,GI50,MDA-MB-435,> 100 µM (inactive)
same,GI50,MDA-N,> 100 µM (inactive)
same,GI50,MOLT-4,> 100 µM (inactive)
same,GI50,Malme-3M,> 100 µM (inactive)
same,GI50,NCI-H226,8.07 µM (inactive)
same,GI50,NCI-H23,> 100 µM (inactive)
same,GI50,NCI-H460,> 100 µM (inactive)
same,GI50,NCI-H522,> 100 µM (inactive)
same,GI50,NCI/ADR-RES,> 100 µM (inactive)
same,GI50,OVCAR-3,> 100 µM (inactive)
same,GI50,OVCAR-4,> 100 µM (inactive)
same,GI50,OVCAR-5,> 100 µM (inactive)
same,GI50,OVCAR-8,> 100 µM (inactive)
same,GI50,PC-3,> 100 µM (inactive)
same,GI50,RPMI-8226,> 100 µM (inactive)
same,GI50,RXF 393,> 100 µM (inactive)
same,GI50,SF-268,> 100 µM (inactive)
same,GI50,SF-295,> 100 µM (inactive)
same,GI50,SF-539,> 100 µM (inactive)
same,GI50,SK-MEL-28,> 100 µM (inactive)
same,GI50,SK-MEL-2,> 100 µM (inactive)
same,GI50,SK-MEL-5,> 100 µM (inactive)
same,GI50,SK-OV-3,> 100 µM (inactive)
same,GI50,SN12C,> 100 µM (inactive)
same,GI50,SNB-19,> 100 µM (inactive)
same,GI50,SNB-75,> 100 µM (inactive)
same,GI50,SW-620,> 100 µM (inactive)
same,GI50,T47D,> 100 µM (inactive)
same,GI50,TK-10,> 100 µM (inactive)
same,GI50,U-251,> 100 µM (inactive)
same,GI50,UACC-257,> 100 µM (inactive)
same,GI50,UACC-62,> 100 µM (inactive)
same,GI50,UO-31,> 100 µM (inactive)
O=C(c1ccccc1)C(C(=O)c1ccccc1)c1nc2ccccc2sc1=O,GI50,786-0,12.1 µM (inactive)
same,GI50,A498,> 25 µM (inactive)
same,GI50,A549,8.91 µM (inactive)
same,GI50,ACHN,9.84 µM (inactive)
same,GI50,BT-549,5.92 µM (inactive)
same,GI50,CAKI-1,13.1 µM (inactive)
same,GI50,CCRF-CEM,6.24 µM (inactive)
same,GI50,COLO 205,12.5 µM (inactive)
same,GI50,DU-145,> 25 µM (inactive)
same,GI50,EKVX,16.1 µM (inactive)
same,GI50,HCC 2998,23.7 µM (inactive)
same,GI50,HCT-116,12 µM (inactive)
same,GI50,HCT-15,7.48 µM
same,GI50,HL-60,> 25 µM (inactive)
same,GI50,HOP-62,9.59 µM (inactive)
same,GI50,HOP-92,2.72 µM (inactive)
same,GI50,HT-29,17 µM (inactive)
same,GI50,Hs-578T,24.5 µM (inactive)
same,GI50,IGROV-1,8.11 µM (inactive)
same,GI50,K562,12 µM (inactive)
same,GI50,KM12,12.6 µM (inactive)
same,GI50,LOX IMVI,9.68 µM (inactive)
same,GI50,M14,15.8 µM (inactive)
same,GI50,MCF7,12.2 µM (inactive)
same,GI50,MDA-MB-231,11.6 µM (inactive)
same,GI50,MDA-MB-435,10.4 µM (inactive)
same,GI50,MDA-N,> 25 µM (inactive)
same,GI50,MOLT-4,8.09 µM (inactive)
same,GI50,Malme-3M,9.53 µM (inactive)
same,GI50,NCI-H226,7.08 µM (inactive)
same,GI50,NCI-H23,16.6 µM (inactive)
same,GI50,NCI-H460,11.4 µM (inactive)
same,GI50,NCI-H522,9.57 µM (inactive)
same,GI50,NCI/ADR-RES,10.5 µM (inactive)
same,GI50,OVCAR-3,> 25 µM (inactive)
same,GI50,OVCAR-4,9.71 µM (inactive)
same,GI50,OVCAR-5,> 25 µM (inactive)
same,GI50,OVCAR-8,9.29 µM (inactive)
same,GI50,PC-3,12.9 µM (inactive)
same,GI50,RPMI-8226,7.18 µM (inactive)
same,GI50,RXF 393,> 25 µM (inactive)
same,GI50,SF-268,> 25 µM (inactive)
same,GI50,SF-295,10.1 µM (inactive)
same,GI50,SF-539,17.1 µM (inactive)
same,GI50,SK-MEL-28,> 25 µM (inactive)
same,GI50,SK-MEL-2,13.5 µM (inactive)
same,GI50,SK-MEL-5,15.6 µM (inactive)
same,GI50,SK-OV-3,6.46 µM (inactive)
same,GI50,SN12C,6.22 µM (inactive)
same,GI50,SNB-19,18.5 µM (inactive)
same,GI50,SW-620,15.9 µM (inactive)
same,GI50,T47D,> 25 µM (inactive)
same,GI50,TK-10,16.9 µM (inactive)
same,GI50,U-251,5.73 µM (inactive)
same,GI50,UACC-257,> 25 µM (inactive)
same,GI50,UACC-62,7.11 µM (inactive)
same,GI50,UO-31,10.4 µM (inactive)
